Experimental data as given in ChEMBL document CHEMBL1201862, “PubChem BioAssay data set” (2004).
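Protocol summary: plate cells (96-well), add compound at 5 concentrations, incubate 48 h, interpolate endpoints linearly. Here, GI50 denotes the concentration required for 50% inhibition of growth.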 The source made the active and inactive calls. Cut-off read from the data, not from the text of the source: active = GI50 up to about 1.1 µM and inactive = higher. Where a SMILES comes first, the peptide text is derived from it. [ ]: non-standard residue; d: D form. The star is where a group is joined. ξ: configuration not given here. Propanoyl(3-(4-MeO-Ph)) = COc1ccc(CCC(=O)*)cc1; Thr(3ξ) = CC(O)[C@H](N)C(=O)O; dNMeL = CN[C@H](CC(C)C)C(=O)O; OBn = c1ccc(CO*)cc1; ξLac = CC(O)C(=O)O

Assays:
Test in all cases: NCI anticancer screen, dose series, 48 h
SF-539 = test system: SF-539
OVCAR-8 = test system: OVCAR-8
SF-268 = test system: SF-268
SK-MEL-28 = test system: SK-MEL-28
SNB-78 = test system: SNB-78
HOP-62 = test system: HOP-62
NCI-H23 = test system: NCI-H23
NCI-H226 = test system: NCI-H226
HCC 2998 = test system: HCC 2998
SF-295 = test system: SF-295
CAKI-1 = test system: CAKI-1
NCI-H460 = test system: NCI-H460
SW-620 = test system: SW-620
CCRF-CEM = test system: CCRF-CEM
TK-10 = test system: TK-10
M14 = test system: M14
A498 = test system: A498
BT-549 = test system: BT-549
DU-145 = test system: DU-145
SR = test system: SR

Measured: GI50

OCC(O)C(O)C(O)c1nn(-c2ccc(F)cc2)c2nc3cc(Cl)c(Cl)cc3nc12 (stereo not given)
inactive: SF-539 13.9 µM | OVCAR-8 11 µM | SF-268 16.9 µM | SK-MEL-28 16.8 µM | SNB-78 13.8 µM | HOP-62 12.7 µM | NCI-H23 18.5 µM | NCI-H226 24.2 µM | HCC 2998 29.4 µM | SF-295 29.1 µM | CAKI-1 21.7 µM | NCI-H460 25.5 µM | SW-620 26.4 µM | CCRF-CEM 14.9 µM | TK-10 21.5 µM | M14 18.2 µM

O=C(/C=C/c1c(O)ccc2ccccc12)c1ccccc1Cl
inactive: SF-539 26.5 µM | OVCAR-8 32 µM | SF-268 29.3 µM | SK-MEL-28 23 µM | SNB-78 44.4 µM | HOP-62 76.6 µM | NCI-H23 19.8 µM | A498 82 µM | NCI-H226 > 100 µM | HCC 2998 > 100 µM | SF-295 23.2 µM | CAKI-1 81.5 µM | NCI-H460 30.6 µM | SW-620 24.2 µM | CCRF-CEM 17.3 µM | TK-10 > 100 µM | M14 18.5 µM

COc1ccc(CNc2cnc3ccc(N)cc3n2)cc1
inactive: SF-539 > 100 µM | OVCAR-8 > 100 µM | SF-268 > 100 µM | SK-MEL-28 3.84 µM | SNB-78 82.8 µM | HOP-62 > 100 µM | NCI-H23 > 100 µM | NCI-H226 > 100 µM | HCC 2998 > 100 µM | SF-295 > 100 µM | CAKI-1 > 100 µM | NCI-H460 > 100 µM | SW-620 > 100 µM | CCRF-CEM 49.2 µM | TK-10 > 100 µM | M14 > 100 µM

COC(=O)/C(=N\NC(N)=S)C(C#N)c1ccccc1 (stereo not given)
inactive: SF-539 > 100 µM | OVCAR-8 > 100 µM | SF-268 > 100 µM | SK-MEL-28 > 100 µM | SNB-78 > 100 µM | HOP-62 > 100 µM | NCI-H23 > 100 µM | A498 > 100 µM | NCI-H226 > 100 µM | HCC 2998 > 100 µM | SF-295 > 100 µM | NCI-H460 > 100 µM | SW-620 > 100 µM | CCRF-CEM > 100 µM | TK-10 > 100 µM | M14 > 100 µM

CCCCCCCCCCCCSC(=S)c1c(C)[nH]n(-c2ccccc2)c1=O
inactive: SF-539 14.3 µM | OVCAR-8 14 µM | SF-268 12.6 µM | SK-MEL-28 7.36 µM | SNB-78 29.8 µM | HOP-62 5.16 µM | NCI-H23 13.3 µM | A498 26.7 µM | NCI-H226 14.9 µM | HCC 2998 5.36 µM | SF-295 12.5 µM | CAKI-1 19.1 µM | SW-620 16.4 µM | CCRF-CEM 2.9 µM | TK-10 22.2 µM | M14 13.4 µM

COc1ccc(CCC(=O)OC(C)[C@H](NC(=O)[C@@H](CC(C)C)N(C)C(=O)[C@@H]2CCCN2C(=O)C(C)O)C(=O)OCc2ccccc2)cc1 (stereo not given in full) (H-[ξLac]P[dNMeL][Thr(3ξ)](Propanoyl(3-(4-MeO-Ph)))-OBn)
inactive: SF-539 24.6 µM | OVCAR-8 96.2 µM | BT-549 43.6 µM | SF-268 31.5 µM | SK-MEL-28 17.8 µM | DU-145 62.5 µM | HOP-62 99.8 µM | NCI-H23 41.4 µM | A498 28.7 µM | NCI-H226 30.4 µM | HCC 2998 40.4 µM | SF-295 35.2 µM | CAKI-1 > 100 µM | NCI-H460 64.4 µM | SW-620 32.3 µM | CCRF-CEM 26.9 µM | SR 34.4 µM | TK-10 18.9 µM | M14 16.9 µM
